# Test results published in paper PMC11822212, “High-throughput screening identifies Aurora kinase B as a critical therapeutic target for Merkel cell carcinoma” (Nature Communications, 2025).
# How the values were obtained:
# Type in all cases: cell-based, human
# MCC13 cells (VN-MCC) = assay: qHTS cell viability (CellTiter-Glo, 72 h; primary and follow-up small molecule screen); conditions: MCC13, 72h
# MCC26 cells (VN-MCC) = assay: as above; conditions: MCC26, 72h
# UISO cells (VN-MCC) = assay: as above; conditions: UISO, 72h
# WAGA cells (VP-MCC) = assay: as above; conditions: WAGA, 72h
# MKL-1 cells (VP-MCC) = assay: as above; conditions: MKL1, 72h
# MKL-2 cells (VP-MCC) = assay: as above; conditions: MKL2, 72h
# [1] = test system: VP-MCC cell lines (WAGA, MKL-1, MKL-2); assay: qHTS cell viability, VP-MCC cell lines as a group (mean AUC, VP.MCC.avg); conditions: re-tested in triplicate, follow-up screen
compound,measurement,setting,value
"CCS(=O)(=O)c1cccc(-c2cc(C(=O)NC3CCN(C)CC3)c(C)c3[nH]c4ncc(C)cc4c23)c1 [TAK-901, reference compound]",Percent viability,MCC13 cells (VN-MCC); Log (M) -5.33646,26.1%
same,Percent viability,MCC13 cells (VN-MCC); Log (M) -5.81358,79.3%
same,Percent viability,MCC13 cells (VN-MCC); Log (M) -6.2907,86.5%
same,Percent viability,MCC13 cells (VN-MCC); Log (M) -6.76782,99.0%
same,Percent viability,MCC13 cells (VN-MCC); Log (M) -7.24494,119.7%
same,Percent viability,MCC13 cells (VN-MCC); Log (M) -7.72207,113.0%
same,Percent viability,MCC13 cells (VN-MCC); Log (M) -8.19919,118.4%
same,Percent viability,MCC13 cells (VN-MCC); Log (M) -8.67631,116.9%
same,Percent viability,MCC13 cells (VN-MCC); Log (M) -9.15343,104.5%
same,Percent viability,MCC13 cells (VN-MCC); Log (M) -9.63055,119.9%
same,Percent viability,MCC13 cells (VN-MCC); Log (M) -10.1077,98.3%
same,Percent viability,MCC26 cells (VN-MCC); Log (M) -5.33646,25.9%
same,Percent viability,MCC26 cells (VN-MCC); Log (M) -5.81358,20.6%
same,Percent viability,MCC26 cells (VN-MCC); Log (M) -6.2907,33.0%
same,Percent viability,MCC26 cells (VN-MCC); Log (M) -6.76782,64.5%
same,Percent viability,MCC26 cells (VN-MCC); Log (M) -7.24494,80.5%
same,Percent viability,MCC26 cells (VN-MCC); Log (M) -7.72207,93.5%
same,Percent viability,MCC26 cells (VN-MCC); Log (M) -8.19919,87.4%
same,Percent viability,MCC26 cells (VN-MCC); Log (M) -8.67631,96.2%
same,Percent viability,MCC26 cells (VN-MCC); Log (M) -9.15343,90.5%
same,Percent viability,MCC26 cells (VN-MCC); Log (M) -9.63055,91.5%
same,Percent viability,MCC26 cells (VN-MCC); Log (M) -10.1077,63.2%
same,Percent viability,UISO cells (VN-MCC); Log (M) -5.33646,2.3%
same,Percent viability,UISO cells (VN-MCC); Log (M) -5.81358,2.9%
same,Percent viability,UISO cells (VN-MCC); Log (M) -6.2907,16.4%
same,Percent viability,UISO cells (VN-MCC); Log (M) -6.76782,39.6%
same,Percent viability,UISO cells (VN-MCC); Log (M) -7.24494,65.2%
same,Percent viability,UISO cells (VN-MCC); Log (M) -7.72207,80.6%
same,Percent viability,UISO cells (VN-MCC); Log (M) -8.19919,77.5%
same,Percent viability,UISO cells (VN-MCC); Log (M) -8.67631,101.9%
same,Percent viability,UISO cells (VN-MCC); Log (M) -9.15343,102.4%
same,Percent viability,UISO cells (VN-MCC); Log (M) -9.63055,103.6%
same,Percent viability,UISO cells (VN-MCC); Log (M) -10.1077,103.5%
same,Percent viability,WAGA cells (VP-MCC); Log (M) -5.33646,14.8%
same,Percent viability,WAGA cells (VP-MCC); Log (M) -5.81358,27.2%
same,Percent viability,WAGA cells (VP-MCC); Log (M) -6.2907,24.4%
same,Percent viability,WAGA cells (VP-MCC); Log (M) -6.76782,45.2%
same,Percent viability,WAGA cells (VP-MCC); Log (M) -7.24494,29.7%
same,Percent viability,WAGA cells (VP-MCC); Log (M) -7.72207,26.6%
same,Percent viability,WAGA cells (VP-MCC); Log (M) -8.19919,95.5%
same,Percent viability,WAGA cells (VP-MCC); Log (M) -8.67631,121.9%
same,Percent viability,WAGA cells (VP-MCC); Log (M) -9.15343,112.0%
same,Percent viability,WAGA cells (VP-MCC); Log (M) -9.63055,114.1%
same,Percent viability,WAGA cells (VP-MCC); Log (M) -10.1077,123.7%
same,Percent viability,MKL-1 cells (VP-MCC); Log (M) -5.33646,3.5%
same,Percent viability,MKL-1 cells (VP-MCC); Log (M) -5.81358,27.5%
same,Percent viability,MKL-1 cells (VP-MCC); Log (M) -6.2907,14.2%
same,Percent viability,MKL-1 cells (VP-MCC); Log (M) -6.76782,38.9%
same,Percent viability,MKL-1 cells (VP-MCC); Log (M) -7.24494,42.7%
same,Percent viability,MKL-1 cells (VP-MCC); Log (M) -7.72207,48.2%
same,Percent viability,MKL-1 cells (VP-MCC); Log (M) -8.19919,61.6%
same,Percent viability,MKL-1 cells (VP-MCC); Log (M) -8.67631,102.5%
same,Percent viability,MKL-1 cells (VP-MCC); Log (M) -9.15343,100.0%
same,Percent viability,MKL-1 cells (VP-MCC); Log (M) -9.63055,106.9%
same,Percent viability,MKL-1 cells (VP-MCC); Log (M) -10.1077,62.6%
same,Percent viability,MKL-2 cells (VP-MCC); Log (M) -5.33646,3.8%
same,Percent viability,MKL-2 cells (VP-MCC); Log (M) -5.81358,12.3%
same,Percent viability,MKL-2 cells (VP-MCC); Log (M) -6.2907,44.7%
same,Percent viability,MKL-2 cells (VP-MCC); Log (M) -6.76782,52.1%
same,Percent viability,MKL-2 cells (VP-MCC); Log (M) -7.24494,44.0%
same,Percent viability,MKL-2 cells (VP-MCC); Log (M) -7.72207,44.3%
same,Percent viability,MKL-2 cells (VP-MCC); Log (M) -8.19919,48.4%
same,Percent viability,MKL-2 cells (VP-MCC); Log (M) -8.67631,94.9%
same,Percent viability,MKL-2 cells (VP-MCC); Log (M) -9.15343,110.4%
same,Percent viability,MKL-2 cells (VP-MCC); Log (M) -9.63055,106.9%
same,Percent viability,MKL-2 cells (VP-MCC); Log (M) -10.1077,102.9%
same,VP-MCC viability (in words),[1],consistently and potently reduced VP-MCC viability
"O=C(Nc1cccc(Cl)c1)Nc1ncc(CCNc2ncnc3ccsc23)s1 [SNS-314, reference compound]",Percent viability,MCC13 cells (VN-MCC); Log (M) -5.33646,49.0%
same,Percent viability,MCC13 cells (VN-MCC); Log (M) -5.81358,56.7%
same,Percent viability,MCC13 cells (VN-MCC); Log (M) -6.2907,82.7%
same,Percent viability,MCC13 cells (VN-MCC); Log (M) -6.76782,93.1%
same,Percent viability,MCC13 cells (VN-MCC); Log (M) -7.24494,90.9%
same,Percent viability,MCC13 cells (VN-MCC); Log (M) -7.72207,100.8%
same,Percent viability,MCC13 cells (VN-MCC); Log (M) -8.19919,94.5%
same,Percent viability,MCC13 cells (VN-MCC); Log (M) -8.67631,106.6%
same,Percent viability,MCC13 cells (VN-MCC); Log (M) -9.15343,125.4%
same,Percent viability,MCC13 cells (VN-MCC); Log (M) -9.63055,116.5%
same,Percent viability,MCC13 cells (VN-MCC); Log (M) -10.1077,92.5%
same,Percent viability,MCC26 cells (VN-MCC); Log (M) -5.33646,72.0%
same,Percent viability,MCC26 cells (VN-MCC); Log (M) -5.81358,84.0%
same,Percent viability,MCC26 cells (VN-MCC); Log (M) -6.2907,86.8%
same,Percent viability,MCC26 cells (VN-MCC); Log (M) -6.76782,90.3%
same,Percent viability,MCC26 cells (VN-MCC); Log (M) -7.24494,93.9%
same,Percent viability,MCC26 cells (VN-MCC); Log (M) -7.72207,97.6%
same,Percent viability,MCC26 cells (VN-MCC); Log (M) -8.19919,94.0%
same,Percent viability,MCC26 cells (VN-MCC); Log (M) -8.67631,99.1%
same,Percent viability,MCC26 cells (VN-MCC); Log (M) -9.15343,95.5%
same,Percent viability,MCC26 cells (VN-MCC); Log (M) -9.63055,91.7%
same,Percent viability,MCC26 cells (VN-MCC); Log (M) -10.1077,91.9%
same,Percent viability,UISO cells (VN-MCC); Log (M) -5.33646,21.7%
same,Percent viability,UISO cells (VN-MCC); Log (M) -5.81358,56.9%
same,Percent viability,UISO cells (VN-MCC); Log (M) -6.2907,70.9%
same,Percent viability,UISO cells (VN-MCC); Log (M) -6.76782,75.0%
same,Percent viability,UISO cells (VN-MCC); Log (M) -7.24494,93.3%
same,Percent viability,UISO cells (VN-MCC); Log (M) -7.72207,86.0%
same,Percent viability,UISO cells (VN-MCC); Log (M) -8.19919,89.1%
same,Percent viability,UISO cells (VN-MCC); Log (M) -8.67631,101.5%
same,Percent viability,UISO cells (VN-MCC); Log (M) -9.15343,108.7%
same,Percent viability,UISO cells (VN-MCC); Log (M) -9.63055,96.8%
same,Percent viability,UISO cells (VN-MCC); Log (M) -10.1077,98.0%
same,Percent viability,WAGA cells (VP-MCC); Log (M) -5.33646,42.9%
same,Percent viability,WAGA cells (VP-MCC); Log (M) -5.81358,32.8%
same,Percent viability,WAGA cells (VP-MCC); Log (M) -6.2907,39.2%
same,Percent viability,WAGA cells (VP-MCC); Log (M) -6.76782,41.9%
same,Percent viability,WAGA cells (VP-MCC); Log (M) -7.24494,24.7%
same,Percent viability,WAGA cells (VP-MCC); Log (M) -7.72207,26.4%
same,Percent viability,WAGA cells (VP-MCC); Log (M) -8.19919,38.2%
same,Percent viability,WAGA cells (VP-MCC); Log (M) -8.67631,100.0%
same,Percent viability,WAGA cells (VP-MCC); Log (M) -9.15343,100.0%
same,Percent viability,WAGA cells (VP-MCC); Log (M) -9.63055,102.6%
same,Percent viability,WAGA cells (VP-MCC); Log (M) -10.1077,100.0%
same,Percent viability,MKL-1 cells (VP-MCC); Log (M) -5.33646,37.7%
same,Percent viability,MKL-1 cells (VP-MCC); Log (M) -5.81358,37.4%
same,Percent viability,MKL-1 cells (VP-MCC); Log (M) -6.2907,42.7%
same,Percent viability,MKL-1 cells (VP-MCC); Log (M) -6.76782,49.2%
same,Percent viability,MKL-1 cells (VP-MCC); Log (M) -7.24494,26.9%
same,Percent viability,MKL-1 cells (VP-MCC); Log (M) -7.72207,28.2%
same,Percent viability,MKL-1 cells (VP-MCC); Log (M) -8.19919,56.1%
same,Percent viability,MKL-1 cells (VP-MCC); Log (M) -8.67631,100.9%
same,Percent viability,MKL-1 cells (VP-MCC); Log (M) -9.15343,107.4%
same,Percent viability,MKL-1 cells (VP-MCC); Log (M) -9.63055,103.4%
same,Percent viability,MKL-1 cells (VP-MCC); Log (M) -10.1077,99.7%
same,Percent viability,MKL-2 cells (VP-MCC); Log (M) -5.33646,20.8%
same,Percent viability,MKL-2 cells (VP-MCC); Log (M) -5.81358,47.8%
same,Percent viability,MKL-2 cells (VP-MCC); Log (M) -6.2907,56.2%
same,Percent viability,MKL-2 cells (VP-MCC); Log (M) -6.76782,47.9%
same,Percent viability,MKL-2 cells (VP-MCC); Log (M) -7.24494,43.4%
same,Percent viability,MKL-2 cells (VP-MCC); Log (M) -7.72207,52.1%
same,Percent viability,MKL-2 cells (VP-MCC); Log (M) -8.19919,55.1%
same,Percent viability,MKL-2 cells (VP-MCC); Log (M) -8.67631,62.3%
same,Percent viability,MKL-2 cells (VP-MCC); Log (M) -9.15343,100.0%
same,Percent viability,MKL-2 cells (VP-MCC); Log (M) -9.63055,104.9%
same,Percent viability,MKL-2 cells (VP-MCC); Log (M) -10.1077,91.4%
same,VP-MCC viability (in words),[1],consistently and potently reduced VP-MCC viability
